Measured values published in patent US20160166631A1, “NUTRACEUTICAL COMBINATION FOR PREVENTION AND TREATMENT OF TYPE 2 DIABETES” (priority 2014, published 2016).

Tested on: Type 2 diabetes patients
Assay: Clinical trials: DiabetainC co-administered with Metformin or other anti-diabetes medications (Hb A1c, fasting blood glucose)
Assay type: in vivo, human
Method: Clinical trials have shown that “DiabetainC” supplements in accordance with this disclosure, when administered to Type 2 diabetes patients, lowers Hb A1c by an average of 1.7% when co-administered with Metformin, as compared with a 1.2% lowering of Hb A1c when Metformin is used by itself. This is a significant improvement. A 0.5% to 1% lowering of Hb A1c correlates with a 20% reduction in morbidity.
Clinical trials have shown an advantageous decrease in fasting blood glucose (FBG) of 72 mg/dL when co-administered with Metformin, as compared with a lowering of 48 mg/dL when Metformin is administered alone. […] These improvements are significant, as every 15 mg/dL to 40 mg/dL decrease in FBG reduces diabetes related heart diseases up to 50%.

CN(C)C(=N)N=C(N)N [Metformin]
lowering of fasting blood glucose (FBG) (Metformin administered alone): 48 mg/dL
lowering of Hb A1c (Type 2 diabetes patients, Metformin used by itself): 1.2%
